{"source": "patent US20230022200A1", "about": "“DRUG THAT PREVENTS DIALYSIS SHIFT OR RENAL DEATH” (Toray Industries, Inc., priority 2019, published 2023)", "key": {"[1]": {"conditions": "cited from earlier work"}, "[2]": {"test_system": "chronic renal failure patients with primary glomerular disease and nephrosclerosis as primary diseases", "conditions": "whole trial, serum creatinine 2.0 to 4.5 mg/dl at entry; 120 μg or 240 μg BPS administration group; cited from earlier work"}, "[3]": {"test_system": "cats with spontaneous chronic kidney disease", "conditions": "in vivo; cited from earlier work"}, "[4]": {"test_system": "patients with chronic renal failure", "conditions": "cited from earlier work"}, "[5]": {"test_system": "chronic renal failure patients with primary glomerular disease and nephrosclerosis as primary diseases", "test": "CASSIOPEIR trial: time to dialysis shift or renal death, hazard ratio of drug and placebo by Cox proportional hazard model", "format": "in vivo, human", "method": "For the analysis, the full analysis set and Intention-To-Treat (ITT) defined in Nakamoto et al., BMC Nephrology were used, and the hazard ratio (HR) of the drug and placebo was calculated by the Cox proportional hazard model. A lower HR value indicates a higher effectiveness of the drug.\nA data set obtained in the CASSIOPEIR trial according to the protocol described in Nakamoto et al., BMC Nephrology was used. Summarizing the protocol of the CASSIOPEIR trial, the targets are chronic renal failure patients with primary glomerular disease and nephrosclerosis as primary diseases, and a BPS sustained-release tablet, TRK-100STP (the same preparation as Careload (trademark) LA Tablets 60 μg (Toray Industries, Inc.)), is administered at 120 μg or 240 μg as BPS per day in two divided doses, morning and evening. Further, this trial was a multicenter, randomized, placebo-controlled, double-blind comparative trial, and carried out in Japan, China, South Korea, Taiwan, Hong Kong, Malaysia, and Thailand.\nThe duration of drug administration was 2 to 4 years, and the number of patients underwent randomization was 892, and the trial was conducted in 160 sites. Further, the ITT population was the primary analysis target population. The primary endpoint was the time to occurrence of the renal composite endpoint defined by doubling of serum creatinine or end-stage renal disease. The guidelines (2013) of the Japanese Society for Dialysis Therapy were used as a reference to determine the time to shift to dialysis. Specifically, according to the policy that “even with adequate conservative treatment, progressive deterioration of renal function is observed, and the need arises when GFR<15 ml/min/1.73 m^2. However, the introduction of actual blood dialysis is determined by comprehensively judging the symptoms of renal failure, activity in daily life, and nutritional status, and a decision is made when these cannot be avoided except by dialysis therapy,” and finally based on the judgment of the investigator, the time to shift to dialysis and the time to reach renal death were determined. The term “dialysis” as used herein includes peritoneal dialysis, in addition to blood dialysis."}, "[6]": {"test_system": "chronic renal failure patients with primary glomerular disease and nephrosclerosis as primary diseases", "conditions": "twice a day for 6 months, cited from earlier work"}, "renal failure model rats": {"test_system": "renal failure model rats", "conditions": "rat, in vivo; cited from earlier work"}, "[7]": {"test_system": "chronic renal failure rat models", "conditions": "combined use with ARBs and ACEIs; cited from earlier work"}}, "note": "Read-outs that look alike come from different tables or passages of the source.", "data": [{"molecule": "CC#CC[C@H](C)[C@H](O)/C=C/[C@@H]1[C@H]2c3cccc(CCCC(=O)[O-])c3O[C@H]2C[C@H]1O.[Na+]", "note": "[BPS-314d, sodium (+)-(1R,2R,3aS,8b S)-2,3,3a,8b-tetrahydro-2-hydroxy-1-[(E)-(3S,4S)-3-hydroxy-4-methyl-1-octen-6-ynyl]-1H-cyclopenta[b]benzofuran-5-butyrate]", "values": [{"measurement": "Cmax of BPS-314d in plasma relative to BPS", "setting": "[1]; when BPS is administered to a human", "result": "¼"}, {"measurement": "AUC of BPS-314d in plasma relative to BPS", "setting": "[1]; when BPS is administered", "result": "¼"}]}, {"molecule": "CC#CCC(C)[C@H](O)/C=C/[C@@H]1[C@H]2c3cccc(CCCC(=O)[O-])c3O[C@H]2C[C@H]1O.[Na+]", "note": "(stereo partly drawn) [BPS, Beraprost sodium]", "values": [{"measurement": "renal composite endpoints and time to shift to dialysis", "setting": "[2]", "result": "not minimized at all"}, {"measurement": "renal function", "setting": "[3]", "result": "suppresses the decline in renal function"}, {"measurement": "slope of the time-varying straight line of the reciprocal of the serum creatinine level", "setting": "[4]; 20 μg per dose three times a day for 6 months", "result": "becomes gentle"}, {"measurement": "shift to dialysis", "setting": "[4]; serum creatinine 1.9 mg/dl or less before start, 20 μg three times a day", "result": "did not shift to dialysis for up to 54 months"}, {"measurement": "effect of BPS", "setting": "[4]; serum creatinine 2.2 mg/dl or more (within the 1.9 to 2.8 mg/dl group)", "result": "not observed"}, {"measurement": "time to shift to dialysis", "setting": "[4]; serum creatinine 2.8 mg/dl or more before start, 20 μg three times a day", "result": "≤ 24", "unit": "months"}, {"measurement": "HR, time to dialysis shift", "setting": "[5]; 240 μg per day, ACEI used in combination (except patients who further used ARB), all subjects, P value 0.0994", "result": 0.60}, {"measurement": "HR, time to dialysis shift", "setting": "[5]; 240 μg per day, ACEI used in combination, Japanese patients, P value 0.0882", "result": 0.49}, {"measurement": "HR, time to dialysis shift", "setting": "[5]; 240 μg, ARB in combination, no ACEI, Japanese partial population, P value 0.3597", "result": 0.79}, {"measurement": "HR, time to dialysis shift", "setting": "[5]; 240 μg, ARB in combination, no ACEI, P value 0.5401", "result": 0.88}, {"measurement": "HR, dialysis shift", "setting": "[5]; Japanese patients, BMI less than 23, 240 μg, P value 0.0048", "result": 0.38}, {"measurement": "HR, dialysis shift", "setting": "[5]; Japanese patients, BMI less than 23 and serum albumin less than 3.8 g/dl", "result": 0.29}, {"measurement": "HR, dialysis shift", "setting": "[5]; Japanese patients, serum albumin less than 3.8 g/dl, 240-μg administration, P value 0.1567", "result": 0.50}, {"measurement": "HR, time to dialysis shift", "setting": "[5]; plasma BPS 50 pg/ml or more confirmed, eGFR 15 or more and less than 45 ml/min/1.73 m^2 (CKD stages 3b and 4), P value 0.0368", "result": 0.59}, {"measurement": "HR, time to dialysis shift", "setting": "[5]; plasma BPS 50 pg/ml or more confirmed, serum creatinine less than 3 mg/dl, P value 0.0251", "result": 0.46}, {"measurement": "increase in serum creatinine level during the administration period compared to before the start of administration", "setting": "[6]; 120-μg group", "result": 1.069, "unit": "times"}, {"measurement": "increase in serum creatinine level during the administration period compared to before the start of administration", "setting": "[6]; 240-μg group", "result": 1.064, "unit": "times"}, {"measurement": "renal tissue damage", "setting": "renal failure model rats", "result": "reduces renal tissue damage"}, {"measurement": "serum creatinine levels", "setting": "renal failure model rats", "result": "suppresses the increase in serum creatinine levels"}, {"measurement": "Cmax and AUC in renal damage patients compared to healthy subjects", "setting": "[1]; Shimamura et al.", "result": "elevated"}, {"measurement": "half-life in blood", "setting": "[1]; in vivo", "result": "about 1 hour"}, {"measurement": "effect of angiotensin inhibitors to suppress the progression of renal damage (increase in serum creatinine levels)", "setting": "[7]", "result": "enhances the effect of the angiotensin inhibitors"}]}]}
